What was measured:
[1] = Dynamic Vapour Sorption (DVS) moisture sorption isotherm; format: physicochemical; details: for total uptake of water vapours: DVS, 25° C., relative humidity 0% to 95% in steps of 5%, 1 h per step
Protocol: Moisture sorption isotherms were measured using a DVS-1 system of Surface Measurement Systems (London, UK). Differences in moisture uptake of various forms of a solid material indicate differences in the relative stabilities of the various solid forms for increasing relative humidity. The experiment was carried out at a constant temperature of 25° C.
A sample of about 11.5 mg of form TDFA 2:1 was spread in the DVS pan. The sample was dried at 0% RH for 7 h. Subsequently the relative humidity of the chamber was increased in steps of 5% units from 0% to 95% in order to monitor the sorption of water vapours. The samples remained in each of the steps for 1 h. Following, desorption was monitored by decreasing the relative humidity to 0% in steps of 5% units and remaining at each step for 1 h. The total uptake of water vapours was about 0.8%, which is line with the industry standard for hygroscopicity. In a similar DVS experiment using the starting material as purchased, the total vapour intake was about 4%, which is undesirable in formulation and requires additional measures.

[2] = Comparative pharmacokinetic study of TDFA 2:1 and ULT 1 (plasma tenofovir by LC-MS-MS); format: in vivo, Male wistar rats; details: rats, one capsule of approximately 15 mg by oral gavage; compared with fumarate salt form ULT 1; FIG. 5
Excerpt: The plasma samples were further worked up for analysis by LC-MS-MS for their content of tenofovir. […] The concentration of tenofovir (the active metabolite of tenofovir DF) was quantified in each sample by means of LC-MS-MS against a calibration curve. From the PK data it is concluded that the hemifumarate co-crystal of tenofovir disoproxil, TDFA 2:1 is bioequivalent to the fumarate salt of tenofovir disoproxil form ULT 1, which is a commercially available fumarate salt of tenofovir disoproxil.

[3] = summary statement, versus Gilead 1

With CC(C)OC(=O)OCOP(=O)(CO[C@H](C)Cn1cnc2c(N)ncnc21)OCOC(=O)OC(C)C.O=C(O)/C=C/C(=O)O [starting material, 9-[(R)-2-[[bis[[(isopropoxycarbonyl)oxy]methoxy]phosphinyl]-methoxy]propyl]adenine fumarate (1:1), reference compound] the “total uptake of water vapours” value [1] was “about 4%”.

With “co-crystal of tenofovir disoproxil and fumaric acid in a 2:1 molar ratio [TDFA 2:1]” the “total uptake of water vapours” value [1] was “about 0.8%”, the “changes in the structure by XRPD at the end of the DVS experiment” value ([1]; solid material after the sorption-desorption cycle, FIG. 4) was “no any changes in the structure” and the “hygroscopicity compared with known crystalline form of tenofovir DF (Gilead 1)” value [1, 3] was “less hygroscopic”. For the same compound, the “stability compared with known crystalline form of tenofovir DF (Gilead 1)” value [1, 3] was “more stable” and the “bioequivalence from PK data (concentration of tenofovir in plasma)” value [2] was “bioequivalent”.

— US20090176983A1, “Tenofovir Disoproxil Hemi-Fumaric Acid Co-Crystal” (ULTIMORPHIX TECHNOLOGIES B.V., priority 2007, published 2009)
